Read-outs that look alike come from different tables or passages of the source. Starred links: 1 amine or outer side, 2 acyl side, 3 side chain; linkers in the order of their positions; H or OH if unused. Non-standard residues stand in square brackets, D forms with d. Residues, ends and D or L forms follow the SMILES beside them. Groups on a side chain read outwards from the residue. *: point of attachment. C20 diacid = O=C(O)CCCCCCCCCCCCCCCCCCC(=O)*; γGlu = O=C(O)[C@H](CCC(=O)[*:2])N[*:1]; NMeI = CC[C@H](C)[C@H](NC)C(=O)O; Nle = CCCC[C@H](N)C(=O)O; AEEA = NCCOCCOCC(=O)O; Aib = CC(C)(N)C(=O)O

The target in experiment [1] is T1, hCRHR2 (Homo sapiens, UniProt Q13324).
T1 sequence (Q13324 1-411): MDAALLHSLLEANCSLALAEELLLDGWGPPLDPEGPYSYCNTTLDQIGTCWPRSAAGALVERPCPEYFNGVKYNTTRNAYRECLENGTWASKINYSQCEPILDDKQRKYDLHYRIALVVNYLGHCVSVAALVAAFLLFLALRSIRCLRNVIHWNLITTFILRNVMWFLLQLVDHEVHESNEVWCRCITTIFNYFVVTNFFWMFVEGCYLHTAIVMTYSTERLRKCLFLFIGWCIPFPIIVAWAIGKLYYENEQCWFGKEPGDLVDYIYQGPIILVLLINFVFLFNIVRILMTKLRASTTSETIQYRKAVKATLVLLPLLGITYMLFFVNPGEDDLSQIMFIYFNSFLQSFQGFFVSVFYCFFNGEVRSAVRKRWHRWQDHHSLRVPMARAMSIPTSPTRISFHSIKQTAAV
The experiment can be described thus: HTRF cAMP assay, determination of hCRHR2 potency (peptide libraries 5 conc., purified peptides 11 conc.). It counts as cell-based. In a few lines: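 Agonist peptides are added to suspended, freshly thawed CHO-K1 cells that stably carry the human receptor. Intracellular cAMP competes with d2-cAMP for a cryptate-tagged antibody, lowering the FRET signal. A variable-slope sigmoid curve is fitted to obtain EC50.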
On the technique in general: TR-FRET usually uses a lanthanide donor and a delayed reading to cut background.

Experiment [2] has as its target T2, hCRHR1 (Homo sapiens, UniProt P34998).
T2 sequence (P34998 24-415): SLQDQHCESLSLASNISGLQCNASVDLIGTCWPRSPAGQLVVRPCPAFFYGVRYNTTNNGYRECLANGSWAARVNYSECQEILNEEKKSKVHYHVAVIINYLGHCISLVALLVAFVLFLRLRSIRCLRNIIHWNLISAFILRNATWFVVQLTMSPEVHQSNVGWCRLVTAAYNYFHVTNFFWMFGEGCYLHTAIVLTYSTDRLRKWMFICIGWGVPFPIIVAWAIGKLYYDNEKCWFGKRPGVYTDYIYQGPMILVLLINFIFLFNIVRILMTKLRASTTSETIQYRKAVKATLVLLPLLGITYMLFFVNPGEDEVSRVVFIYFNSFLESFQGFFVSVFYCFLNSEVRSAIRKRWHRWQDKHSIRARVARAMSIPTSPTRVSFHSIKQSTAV
Put plainly: HTRF cAMP assay, determination of hCRHR1 potency (peptide libraries 5 conc., purified peptides 11 conc.). It counts as cell-based. In a few lines: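 CHO-K1 cells stably expressing human CRHR1, thawed from frozen stocks just before use, were stimulated in suspension with agonist peptides. cAMP was measured by HTRF competitive immunoassay (cryptate anti-cAMP antibody vs d2-cAMP).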

Setting [3] is: Table 3, matched molecular pairs X^38 L vs Nle, peptide library of Example 4, read-out: hCRHR2 pEC50 (converted).
The mark [4] stands for this setting: Table 3, matched molecular pairs X^38 L vs Nle, peptide library of Example 4, read-out: hCRHR1 pEC50 (converted).
[5] abbreviates: library peptides, matched molecular pairs L vs Nle in position X^38, read-out: Potency hCRHR2 pEC50 (converted).
[6] abbreviates: library peptides, matched molecular pairs L vs Nle in position X^38, read-out: Potency hCRHR1 pEC50 (converted).

As for `CCCC[C@H](NC(=O)[C@@H](NC(=O)[C@H](CCC(=O)O)NC(=O)[C@H](C)NC(=O)[C@H](CC(N)=O)NC(=O)[C@@H](NC(=O)[C@H](CCCCNC(=O)COCCOCCNC(=O)COCCOCCNC(=O)CC[C@H](NC(=O)CC[C@H](NC(=O)CCCCCCCCCCCCCCCCCCC(=O)O)C(=O)O)C(=O)O)NC(=O)[C@H](C)NC(=O)[C@H](CCCNC(=N)N)NC(=O)[C@H](CCC(=O)O)NC(=O)[C@H](CCCNC(=N)N)NC(=O)[C@H](C)NC(=O)[C@H](CO)NC(=O)[C@H](CCC(=O)O)NC(=O)[C@H](C)NC(=O)[C@H](CCCNC(=N)N)NC(=O)[C@H](C)NC(=O)[C@H](CCC(N)=O)NC(=O)[C@H](CCC(=O)O)NC(=O)[C@H](CC(C)C)NC(=O)[C@H](CC(C)C)NC(=O)[C@@H](NC(=O)[C@H](CCC(N)=O)NC(=O)[C@H](CC(C)C)NC(=O)[C@H](CC(C)C)NC(=O)CNC(=O)[C@@H](NC(=O)[C@@H]1CCCN1C(=O)[C@@H](NC(=O)[C@H](CC(=O)O)NC(=O)[C@H](CC(C)C)NC(=O)[C@H](CO)NC(=O)[C@H](CC(C)C)NC(=O)[C@@H](NC(=O)[C@@H](N)[C@@H](C)CC)C(C)C)C(C)C)[C@@H](C)CC)[C@@H](C)CC)[C@@H](C)O)[C@@H](C)CC)C(=O)N[C@@H](C)C(=O)N[C@@H](CCC(=O)O)C(=O)N[C@H](C(N)=O)[C@@H](C)CC` [SEQ ID NO: 22] (H-IVLSLDVPIGLLQILLEQARAESARERAK([AEEA-AEEA-γGlu-γGlu-C20 diacid])TNAEI[Nle]AEI-NH2), the figures for the EC50 in experiment [1] (setting [3]) and in experiment [2] (setting [4]) were 0.158 nM and 5010 nM, respectively.

Turning to `CCCC[C@H](NC(=O)[C@@H](NC(=O)[C@H](CCC(=O)O)NC(=O)[C@H](C)NC(=O)[C@H](CC(N)=O)NC(=O)[C@@H](NC(=O)[C@H](CCCCNC(=O)COCCOCCNC(=O)COCCOCCNC(=O)CC[C@H](NC(=O)CC[C@H](NC(=O)CCCCCCCCCCCCCCCCCCC(=O)O)C(=O)O)C(=O)O)NC(=O)[C@H](C)NC(=O)[C@H](CCC(N)=O)NC(=O)[C@H](CCC(=O)O)NC(=O)[C@H](CCCNC(=N)N)NC(=O)[C@H](C)NC(=O)[C@H](C)NC(=O)[C@H](CCCNC(=N)N)NC(=O)[C@H](C)NC(=O)[C@H](CCCNC(=N)N)NC(=O)[C@H](C)NC(=O)[C@H](CCC(N)=O)NC(=O)[C@H](CCC(=O)O)NC(=O)[C@H](CC(C)C)NC(=O)[C@H](CC(C)C)NC(=O)[C@@H](NC(=O)[C@H](CCC(N)=O)NC(=O)[C@H](CC(C)C)NC(=O)[C@H](CC(C)C)NC(=O)CNC(=O)[C@@H](NC(=O)[C@@H]1CCCN1C(=O)[C@@H](NC(=O)[C@H](CC(=O)O)NC(=O)[C@H](CC(C)C)NC(=O)[C@H](CO)NC(=O)[C@H](CC(C)C)NC(=O)[C@@H](NC(=O)[C@@H](N)[C@@H](C)CC)C(C)C)C(C)C)[C@@H](C)CC)[C@@H](C)CC)[C@@H](C)O)[C@@H](C)CC)C(=O)N[C@@H](C)C(=O)N[C@@H](CCC(=O)O)C(=O)N[C@H](C(N)=O)C(C)C` [SEQ ID NO: 45] (H-IVLSLDVPIGLLQILLEQARARAAREQAK([AEEA-AEEA-γGlu-γGlu-C20 diacid])TNAEI[Nle]AEV-NH2), the EC50 in experiment [1] (setting [3]) was 0.251 nM; in experiment [1] (Table 5, purified peptides, read-out: hCRHR2 EC50), 0.52 nM; in experiment [2] (setting [4]), 200 nM. Also, the “Selectivity ratio (hCRHR1/ hCRHR2)” value in experiment [1] (Table 5) turned out to be 107.

With `CCCC[C@H](NC(=O)[C@@H](NC(=O)[C@H](CCC(=O)O)NC(=O)[C@H](C)NC(=O)[C@H](CC(N)=O)NC(=O)[C@@H](NC(=O)[C@H](CCCCNC(=O)COCCOCCNC(=O)COCCOCCNC(=O)CC[C@H](NC(=O)CC[C@H](NC(=O)CCCCCCCCCCCCCCCCCCC(=O)O)C(=O)O)C(=O)O)NC(=O)[C@H](C)NC(=O)[C@H](CCC(N)=O)NC(=O)[C@H](CCC(=O)O)NC(=O)[C@H](CCCNC(=N)N)NC(=O)[C@H](C)NC(=O)[C@H](CCC(N)=O)NC(=O)[C@H](CCCNC(=N)N)NC(=O)[C@H](C)NC(=O)[C@H](CCCNC(=N)N)NC(=O)[C@H](C)NC(=O)[C@H](CCC(N)=O)NC(=O)[C@H](CCC(=O)O)NC(=O)[C@H](CC(C)C)NC(=O)[C@H](CC(C)C)NC(=O)[C@@H](NC(=O)[C@H](CCC(N)=O)NC(=O)[C@H](CC(C)C)NC(=O)[C@H](CC(C)C)NC(=O)CNC(=O)[C@@H](NC(=O)[C@@H]1CCCN1C(=O)[C@@H](NC(=O)[C@H](CC(=O)O)NC(=O)[C@H](CC(C)C)NC(=O)[C@H](CO)NC(=O)[C@H](CC(C)C)NC(=O)[C@@H](NC(=O)[C@@H](N)[C@@H](C)CC)C(C)C)C(C)C)[C@@H](C)CC)[C@@H](C)CC)[C@@H](C)O)[C@@H](C)CC)C(=O)N[C@@H](C)C(=O)N[C@@H](CCC(=O)O)C(=O)N[C@H](C(N)=O)C(C)C` [compound 53] (H-IVLSLDVPIGLLQILLEQARARQAREQAK([AEEA-AEEA-γGlu-γGlu-C20 diacid])TNAEI[Nle]AEV-NH2), the values for the EC50 in experiment [1] (setting [5]) and in experiment [2] (setting [6]) were 0.316 nM and 251 nM, respectively.

For `CCCC[C@H](NC(=O)[C@@H](NC(=O)[C@H](CCC(=O)O)NC(=O)[C@H](C)NC(=O)[C@H](CC(N)=O)NC(=O)[C@@H](NC(=O)[C@H](CCCCNC(=O)COCCOCCNC(=O)COCCOCCNC(=O)CC[C@H](NC(=O)CC[C@H](NC(=O)CCCCCCCCCCCCCCCCCCC(=O)O)C(=O)O)C(=O)O)NC(=O)[C@H](C)NC(=O)[C@H](CCC(N)=O)NC(=O)[C@H](CCC(=O)O)NC(=O)[C@H](CCCNC(=N)N)NC(=O)[C@H](CCC(N)=O)NC(=O)[C@H](C)NC(=O)[C@H](CCCNC(=N)N)NC(=O)[C@H](C)NC(=O)[C@H](CCCNC(=N)N)NC(=O)[C@H](C)NC(=O)[C@H](CCC(N)=O)NC(=O)[C@H](CCC(=O)O)NC(=O)[C@H](CC(C)C)NC(=O)[C@H](CC(C)C)NC(=O)[C@@H](NC(=O)[C@H](CCC(N)=O)NC(=O)[C@H](CC(C)C)NC(=O)[C@H](CC(C)C)NC(=O)CNC(=O)[C@@H](NC(=O)[C@@H]1CCCN1C(=O)[C@@H](NC(=O)[C@H](CC(=O)O)NC(=O)[C@H](CC(C)C)NC(=O)[C@H](CO)NC(=O)[C@H](CC(C)C)NC(=O)[C@@H](NC(=O)[C@@H](N)[C@@H](C)CC)C(C)C)C(C)C)[C@@H](C)CC)[C@@H](C)CC)[C@@H](C)O)[C@@H](C)CC)C(=O)N[C@@H](C)C(=O)N[C@@H](CCC(=O)O)C(=O)N[C@H](C(N)=O)C(C)C` [compound 57] (H-IVLSLDVPIGLLQILLEQARARAQREQAK([AEEA-AEEA-γGlu-γGlu-C20 diacid])TNAEI[Nle]AEV-NH2), the EC50 in experiment [1] (setting [5]) was 0.126 nM; in experiment [2] (setting [6]), 63.1 nM.

Turning to `CCCC[C@H](NC(=O)[C@@H](NC(=O)[C@H](CCC(=O)O)NC(=O)C(C)(C)NC(=O)[C@H](CC(N)=O)NC(=O)[C@@H](NC(=O)[C@H](CCCCNC(=O)COCCOCCNC(=O)COCCOCCNC(=O)CC[C@H](NC(=O)CC[C@H](NC(=O)CCCCCCCCCCCCCCCCCCC(=O)O)C(=O)O)C(=O)O)NC(=O)[C@H](C)NC(=O)[C@H](CCC(N)=O)NC(=O)[C@H](CCC(=O)O)NC(=O)[C@H](CCCNC(=N)N)NC(=O)[C@H](C)NC(=O)[C@H](C)NC(=O)[C@H](CCCNC(=N)N)NC(=O)[C@H](C)NC(=O)[C@H](CCCNC(=N)N)NC(=O)[C@H](C)NC(=O)[C@H](CCC(N)=O)NC(=O)[C@@H](NC(=O)[C@H](CC(C)C)NC(=O)[C@H](CC(C)C)NC(=O)[C@@H](NC(=O)[C@H](CCC(N)=O)NC(=O)[C@H](CC(C)C)NC(=O)[C@H](CC(C)C)NC(=O)CNC(=O)[C@@H](NC(=O)[C@@H]1CCCN1C(=O)[C@@H](NC(=O)[C@H](CC(=O)O)NC(=O)[C@H](CC(C)C)NC(=O)[C@H](CO)NC(=O)[C@H](CC(C)C)NC(=O)[C@@H](NC(=O)[C@@H](NC)[C@@H](C)CC)C(C)C)C(C)C)[C@@H](C)CC)[C@@H](C)CC)[C@@H](C)O)[C@@H](C)O)[C@@H](C)CC)C(=O)N[C@@H](C)C(=O)N[C@@H](CCC(=O)O)C(=O)N[C@H](C(N)=O)C(C)C` [compound 217] (H-[NMeI]VLSLDVPIGLLQILLTQARARAAREQAK([AEEA-AEEA-γGlu-γGlu-C20 diacid])TN[Aib]EI[Nle]AEV-NH2), the EC50 is 0.0398 nM in experiment [1] (Table 4, library peptides having X^38 = Nle, read-out: hCRHR2 pEC50 (converted)) and 1000 nM in experiment [2] (Table 4, library peptides having X^38 = Nle, read-out: hCRHR1 pEC50 (converted)).

The values above are taken from EP4810052A2, “HCRHR2 SELECTIVE POLYPEPTIDES” (Gubra A/S, priority 2023, dated 2026).
